Results published in US12503475B2 (Centessa Pharmaceuticals (UK) Limited, priority 2020, dated 2025).

Target: T1, human orexin type 2 receptor (hOX2R) (Homo sapiens, UniProt O43614)
T1 construct: expressed in transfected cells
T1 sequence (O43614 1-444): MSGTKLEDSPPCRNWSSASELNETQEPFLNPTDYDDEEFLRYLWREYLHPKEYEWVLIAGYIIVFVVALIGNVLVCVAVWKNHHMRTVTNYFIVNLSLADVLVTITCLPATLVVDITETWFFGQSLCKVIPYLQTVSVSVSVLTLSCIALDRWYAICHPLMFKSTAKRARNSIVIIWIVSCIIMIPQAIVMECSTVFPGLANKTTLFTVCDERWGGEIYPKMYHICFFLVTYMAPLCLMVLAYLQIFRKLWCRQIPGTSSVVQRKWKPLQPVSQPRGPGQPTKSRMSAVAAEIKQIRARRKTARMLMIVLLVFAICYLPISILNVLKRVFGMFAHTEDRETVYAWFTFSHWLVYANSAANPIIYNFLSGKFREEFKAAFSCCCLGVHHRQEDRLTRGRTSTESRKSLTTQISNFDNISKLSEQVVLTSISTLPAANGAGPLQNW
Assay: Measurement of orexin type 2 receptor agonist activity (FLIPR calcium fluorescence)
Assay type: cell-based
Conditions: CHO cells expressing hOX2R, FLIPR calcium fluorescence; for EC50: read-out: hOx2 pEC50 (converted); for Emax: CHO, read-out: hOx2 Emax (%)
In short: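 Agonism was read as fluorescence in cells stably expressing human OX2R. E. is the response at 10 μM relative to orexin A as full agonist (100%).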

SMILES	EC50	Emax
CS(=O)(=O)N[C@@H]1[C@H](Cc2cccc(-c3ccccc3)c2F)N(C(=O)NCC2COC2)CC12CC2 [Compound 334, (6S,7S)-6-((2-fluoro-[1,1′-biphenyl]-3-yl)methyl)-7-(methylsulfonamido)-N-(oxetan-3-ylmethyl)-5-azaspiro[2.4]heptane-5-carboxamide]	1 to 10 nM	90 to 100%
CC[C@@H](O)C(=O)N1CC2(CC2)C(NS(C)(=O)=O)C1Cc1cccc(-c2ccccc2)c1 (mixture of isomers) [Compound 37, N-(6-([1,1′-biphenyl]-3-ylmethyl)-5-((R)-2-hydroxybutanoyl)-5-azaspiro[2.4]heptan-7-yl)methanesulfonamide]	10 to 100 nM	90 to 100%
CC[C@](C)(O)C(=O)N1CC2(CC2)[C@H](NS(=O)(=O)CF)[C@@H]1Cc1cccc(-c2cccc(F)c2)c1F [Compound 376, N-((6S,7S)-6-((2,3′-difluoro-[1,1′-biphenyl]-3-yl)methyl)-5-((S)-2-hydroxy-2-methylbutanoyl)-5-azaspiro[2.4]heptan-7-yl)-1-fluoromethanesulfonamide]	1 to 10 nM	90 to 100%
O=C(NC(CF)CF)N1CC2(CC2)[C@H](NS(=O)(=O)CF)[C@@H]1Cc1cccc(-c2ccccc2)c1F [Compound 369, (6S,7S)-N-(1,3-difluoropropan-2-yl)-6-((2-fluoro-[1,1′-biphenyl]-3-yl)methyl)-7-((fluoromethyl)sulfonamido)-5-azaspiro[2.4]heptane-5-carboxamide]	1 to 10 nM	90 to 100%
CC(C)(C)C(=O)N1CC2(CC2)C(NS(C)(=O)=O)C1Cc1cccc(-c2cccc(F)c2)c1F (racemic) [Compound 23]	10 to 100 nM	90 to 100%
O=C([C@H]1CCO1)N1CC2(CC2)[C@H](NS(=O)(=O)CF)[C@@H]1Cc1cc(F)cc(-c2cccc(F)c2F)c1F [Compound 217, 1-fluoro-N-((6S,7S)-5-((R)-oxetane-2-carbonyl)-6-((2,2′,3′,5-tetrafluoro-[1,1′-biphenyl]-3-yl)methyl)-5-azaspiro[2.4]heptan-7-yl)methanesulfonamide]	1 to 10 nM	90 to 100%
O=C([C@H]1CCO1)N1CC2(CC2)[C@H](NS(=O)(=O)CF)[C@@H]1Cc1cccc(-c2ccccc2)c1 [Compound 48, N-((6S,7S)-6-([1,1′-biphenyl]-3-ylmethyl)-5-((R)-oxetane-2-carbonyl)-5-azaspiro[2.4]heptan-7-yl)-1-fluoromethanesulfonamide]	–	80 to 90%
O=C([C@H]1CCO1)N1CC2(CC2)[C@H](NS(=O)(=O)CF)[C@@H]1Cc1cc(F)cc(-c2cccc(F)c2)c1F [Compound 123, 1-fluoro-N-((6S,7S)-5-((R)-oxetane-2-carbonyl)-6-((2,3′,5-trifluoro-[1,1′-biphenyl]-3-yl)methyl)-5-azaspiro[2.4]heptan-7-yl)methanesulfonamide]	0.0794 to 1 nM	90 to 100%
O=C([C@H]1CCO1)N1CC2(CC2)[C@H](NS(=O)(=O)c2c[nH]cn2)[C@@H]1Cc1cccc(-c2ccccc2)c1 [Compound 75, N-((6S,7S)-6-([1,1′-biphenyl]-3-ylmethyl)-5-((R)-oxetane-2-carbonyl)-5-azaspiro[2.4]heptan-7-yl)-1H-imidazole-4-sulfonamide]	10 to 100 nM	90 to 100%
CN(C)C(=O)N1CC2(CC2)[C@H](NS(C)(=O)=O)[C@@H]1Cc1cccc(-c2cc(F)cc(F)c2)c1 (racemic) [Compound 296, 6-((3′,5′-difluoro-[1,1′-biphenyl]-3-yl)methyl)-N,N-dimethyl-7-(methylsulfonamido)-5-azaspiro[2.4]heptane-5-carboxamide]	10 to 100 nM	90 to 100%
O=C(NCC(F)F)N1CC2(CC2)[C@H](NS(=O)(=O)C(F)F)[C@@H]1Cc1cc(F)cc(-c2ccccc2)c1F [Compound 389, (6S,7S)-6-((2,5-difluoro-[1,1′-biphenyl]-3-yl)methyl)-N-(2,2-difluoroethyl)-7-((difluoromethyl)sulfonamido)-5-azaspiro[2.4]heptane-5-carboxamide]	1 to 10 nM	90 to 100%
CCS(=O)(=O)N[C@@H]1[C@H](Cc2cccc(-c3ccccc3)c2)N(C(=O)[C@H]2CCO2)CC12CC2 [Compound 41]	1 to 10 nM	90 to 100%
C[C@@]1(C(=O)N2CC3(CC3)[C@H](NS(=O)(=O)CF)[C@@H]2Cc2cccc(-c3ccccc3)c2F)CCO1 [Compound 203, 1-fluoro-N-((6S,7S)-6-((2-fluoro-[1,1′-biphenyl]-3-yl)methyl)-5-((S)-2-methyloxetane-2-carbonyl)-5-azaspiro[2.4]heptan-7-yl)methanesulfonamide]	1 to 10 nM	90 to 100%
O=C(NCC1(F)CC1)N1CC2(CC2)[C@H](NS(=O)(=O)CF)[C@@H]1Cc1cccc(-c2cc(F)cc(F)c2)c1F [Compound 412, (6S,7S)-N-((1-fluorocyclopropyl)methyl)-7-((fluoromethyl)sulfonamido)-6-((2,3′,5′-trifluoro-[1,1′-biphenyl]-3-yl)methyl)-5-azaspiro[2.4]heptane-5-carboxamide]	1 to 10 nM	90 to 100%
CS(=O)(=O)N[C@@H]1[C@H](Cc2cccc(-c3ccccc3)c2F)N(C(=O)C2(O)CCC2)CC12CC2 [Compound 68, N-((6S,7S)-6-((2-fluoro-[1,1′-biphenyl]-3-yl)methyl)-5-(1-hydroxycyclobutane-1-carbonyl)-5-azaspiro[2.4]heptan-7-yl)methanesulfonamide]	0.0794 to 1 nM	90 to 100%
CCS(=O)(=O)NC1C(Cc2cccc(-c3ccccc3)c2)N(C(=O)OC)CC12CC2 (racemic) [Compound 6, methyl 6-([1,1′-biphenyl]-3-ylmethyl)-7-(ethylsulfonamido)-5-azaspiro[2.4]heptane-5-carboxylate]	100 to 1000 nM	70 to 80%
CC(F)C(=O)N1CC2(CC2)C(NS(C)(=O)=O)C1Cc1cccc(-c2ccccc2)c1 (single isomer, unassigned) [Compound 1, N-(6-([1,1′-biphenyl]-3-ylmethyl)-5-(2-fluoropropanoyl)-5-azaspiro[2.4]heptan-7-yl)methanesulfonamide]	10 to 100 nM	70 to 80%
COC1(C(=O)N2CC3(CC3)[C@H](NS(=O)(=O)CF)[C@@H]2Cc2cc(F)cc(-c3ccccc3)c2F)CC1 [Compound 404, N-((6S,7S)-6-((2,5-difluoro-[1,1′-biphenyl]-3-yl)methyl)-5-(1-methoxycyclopropane-1-carbonyl)-5-azaspiro[2.4]heptan-7-yl)-1-fluoromethanesulfonamide]	1 to 10 nM	90 to 100%
O=C([C@H](O)CF)N1CC2(CC2)[C@H](NS(=O)(=O)C(F)F)[C@@H]1Cc1cccc(-c2cc(F)cc(F)c2)c1F [Compound 392, 1,1-difluoro-N-((6S,7S)-5-((S)-3-fluoro-2-hydroxypropanoyl)-6-((2,3′,5′-trifluoro-[1,1′-biphenyl]-3-yl)methyl)-5-azaspiro[2.4]heptan-7-yl)methanesulfonamide]	0.0794 to 1 nM	90 to 100%
CC(C)(O)C(=O)N1CC2(CC2)[C@H](NS(=O)(=O)CF)[C@@H]1Cc1cccc(-c2cc(F)cc(F)c2)c1F [Compound 192, 1-fluoro-N-((6S,7S)-5-(2-hydroxy-2-methylpropanoyl)-6-((2,3′,5′-trifluoro-[1,1′-biphenyl]-3-yl)methyl)-5-azaspiro[2.4]heptan-7-yl)methanesulfonamide]	1 to 10 nM	90 to 100%
